Values quoted from earlier work, collected in patent publication US20090148430A1, “HUMAN OBESITY SUSCEPTIBILTY GENE ENCODING POTASSIUM ION CHANNELS AND USES THEREOF” (priority 2004, published 2009).

What was measured:
[1] = target: T1, cloned rat brain potassium channel Kv1.1 (Rattus norvegicus, UniProt P10499); conditions: Kv1.1, Xenopus laevis oocytes
T1 construct: host or cells: Xenopus laevis oocytes

[2] = target: Kv1.5 (Rattus norvegicus, UniProt P19024); conditions: independent of effects on PTK activity
Chain of Kv1.5 (P19024 whole entry): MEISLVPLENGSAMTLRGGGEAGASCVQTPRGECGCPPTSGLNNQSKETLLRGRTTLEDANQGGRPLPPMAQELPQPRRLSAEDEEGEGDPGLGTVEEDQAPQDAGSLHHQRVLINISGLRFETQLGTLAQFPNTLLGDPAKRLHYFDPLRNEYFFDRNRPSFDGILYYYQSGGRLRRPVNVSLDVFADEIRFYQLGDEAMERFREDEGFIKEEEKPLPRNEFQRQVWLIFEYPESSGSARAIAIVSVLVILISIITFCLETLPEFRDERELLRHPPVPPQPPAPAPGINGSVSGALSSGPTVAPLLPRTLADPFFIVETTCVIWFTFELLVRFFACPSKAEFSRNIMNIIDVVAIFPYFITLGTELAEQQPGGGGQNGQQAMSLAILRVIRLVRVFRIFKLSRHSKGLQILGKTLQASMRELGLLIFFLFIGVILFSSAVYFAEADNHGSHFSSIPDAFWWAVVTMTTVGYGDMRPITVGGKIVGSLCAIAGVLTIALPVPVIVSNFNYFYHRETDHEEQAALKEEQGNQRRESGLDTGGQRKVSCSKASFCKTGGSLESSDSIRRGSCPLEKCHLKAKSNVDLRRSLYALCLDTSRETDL

[3] = system: rats
[4] = system: Kv channel; conditions: vascular smooth muscle cells
[5] = intranasal, healthy controls
[6] = system: guinea-pig ileum
[7] = massively obese child with leptin deficiency mutation
[8] = system: pig Kv1.5; conditions: expressed in Xenopus oocytes; read-out: IC(50) block of pig Kv1.5
[9] = system: Kv channel; conditions: extracellular application, MASMC and intestinal epithelial cells, rats
[10] = system: KV currents including Kv1.1; conditions: mammalian neurons, therapeutic levels

T1 sequence (P10499 whole entry): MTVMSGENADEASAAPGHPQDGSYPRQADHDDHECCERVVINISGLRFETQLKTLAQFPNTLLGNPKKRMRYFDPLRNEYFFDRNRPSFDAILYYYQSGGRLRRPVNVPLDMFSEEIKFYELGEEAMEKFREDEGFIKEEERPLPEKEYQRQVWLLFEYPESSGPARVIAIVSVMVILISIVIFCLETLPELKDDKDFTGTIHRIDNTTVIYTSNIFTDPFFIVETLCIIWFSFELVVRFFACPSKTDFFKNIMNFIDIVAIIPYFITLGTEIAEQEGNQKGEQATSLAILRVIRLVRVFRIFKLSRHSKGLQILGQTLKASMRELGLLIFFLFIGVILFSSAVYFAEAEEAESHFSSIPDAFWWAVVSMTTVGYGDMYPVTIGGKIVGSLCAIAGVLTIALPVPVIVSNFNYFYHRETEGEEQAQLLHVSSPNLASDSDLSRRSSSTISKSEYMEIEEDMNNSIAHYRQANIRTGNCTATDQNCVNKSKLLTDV

C1CCc2nnnn2CC1 [PTZ, pentylenetetrazol]
effect on potassium currents at more negative potentials ([1]; more negative potentials): increased the potassium currents
effect on potassium currents at more positive potentials ([1]; more positive potentials): decreased them

COc1cc2ncnc(Nc3cccc(Cl)c3)c2cc1OC [AG-1478]
action on Kv1.5 currents [2]: open-channel blocker

Kaliotoxin: a Kv1.1 and Kv1.3 channel blocker
associative learning [3]: improves associative learning

CCNC(C)Cc1cccc(C(F)(F)F)c1 (centres unmarked) [fenfluramine]
Kv channel activity [4]: decrease Kv channel activity

ACTH4-10: adrenocorticotropin4-10, representing a core sequence of all melanocortins (MEHFRWG; Corticotropin; UniProt P01189 141-147, looked up, fragment)
body fat mass [5]: reduced
plasma leptin concentrations [5]: reduced
weight [5]: reduced

C=C1C[C@@]2(O)[C@@H]3CC[C@@]4(C)[C@@H]5C=CC(=O)OC[C@]5(C(C)OC(C)=O)[C@@H](OC(C)=O)[C@@H](OC(C)=O)[C@@H]4[C@@]3(C)[C@H](OC(C)=O)[C@H](OC(C)=O)[C@@]2(C)C2(C(=O)OC)O[C@H]12 (some centres unmarked) [correolide]
pressure threshold for eliciting peristaltic contractions [6]: progressive and sustained reduction

CCN[C@@H](C)Cc1cccc(C(F)(F)F)c1 [dexenfluramine]
Kv channel activity [4]: decrease Kv channel activity

recombinant leptin: recombinant leptin used to treat a child with a leptin deficiency mutation
treatment outcome [7]: treated successfully

dendrotoxin-K
peristaltic activity [6]: increases the peristaltic activity
pressure threshold for eliciting peristaltic contractions [6]: immediate reduction

margatoxin (TIINVKCTSPKQCLPPCKAQFGQSAGAKCMNGKCKCYPH; UniProt P40755 1-39, looked up)
peristaltic activity [6]: increases the peristaltic activity
pressure threshold for eliciting peristaltic contractions [6]: immediate reduction

alpha-dendrotoxin
peristaltic activity [6]: increases the peristaltic activity
pressure threshold for eliciting peristaltic contractions [6]: immediate reduction

COc1ccc(CC(=O)NCc2ccccc2-c2ccccc2C(=O)NCCc2cccnc2)cc1 [AVE0118]
IC50 [8]: 5.4 µM

Nc1ccncc1 [4-aminopyridine]
effect of K+ channel blockade [9]: anorexic effect

CNCCC(Oc1ccc(C(F)(F)F)cc1)c1ccccc1 (centres unmarked) [fluoxetine]
block of KV currents including Kv1.1 [10]: can occur at therapeutic levels
